Results reported in the supplement of paper PMC10307832.

Assays:
Assay in all cases: relative viability (nuclei count vs DMSO), 5 days (fraction); higher = more cells survive
[1] = compound: C1=CC=C2C(=C1)N=C(S2)C(C#N)C3=NC(=NC=C3)NCCC4=CN=CC=C4 + C[C@]1(O)C[C@@H](c2nc(-c3ccc4ccc(-c5ccccc5)nc4c3)c3c(N)nccn32)C1 [Linsitinib] (partner 1 µM)
Summary of the method: (§1)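 Lung cancer cell lines were seeded in 1536-well plates and dosed by pin tool the next day, with either a single drug or a fixed anchor-drug dose combined with five library-drug doses (not always all listed) spaced in √10 steps. Five days later, one step fixed the cells and stained their nuclei (final 0.05% Triton X-100, 1% formaldehyde, 1 ug/ml Hoechst), and nuclei were counted on 4× images. Relative viability is the nuclei count in treated wells divided by the count in vehicle wells, and each value is the median of duplicate plates.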

NVP-TAE684 + Dasatinib = compound: COc1cc(N2CCC(N3CCN(C)CC3)CC2)ccc1Nc1ncc(Cl)c(Nc2ccccc2S(=O)(=O)C(C)C)n1 [NVP-TAE684] + Cc1nc(Nc2ncc(C(=O)Nc3c(C)cccc3Cl)s2)cc(N2CCN(CCO)CC2)n1 [Dasatinib] (partner 0.075 µM)
Summary of the method: as §1

CUDC-101 + Navitoclax = compound: C#Cc1cccc(Nc2ncnc3cc(OC)c(OCCCCCCC(=O)NO)cc23)c1 [CUDC-101] + CC1(C)CCC(c2ccc(Cl)cc2)=C(CN2CCN(c3ccc(C(=O)NS(=O)(=O)c4ccc(N[C@H](CCN5CCOCC5)CSc5ccccc5)c(S(=O)(=O)C(F)(F)F)c4)cc3)CC2)C1 [Navitoclax] (partner 0.5 µM)
Summary of the method: as §1

[2] = compound: C1=CC=C2C(=C1)N=C(S2)C(C#N)C3=NC(=NC=C3)NCCC4=CN=CC=C4 + CC(=O)c1c(C)c2cnc(Nc3ccc(N4CCNCC4)cn3)nc2n(C2CCCC2)c1=O [Palbociclib] (partner 0.5 µM)
Summary of the method: as §1

Cell Line | relative viability ([1]; first compound 0.005 µM) | relative viability ([1]; first compound 0.01581 µM) | relative viability ([1]; first compound 0.05 µM) | relative viability ([1]; first compound 0.1581 µM) | relative viability ([1]; first compound 0.5 µM) | relative viability (NVP-TAE684 + Dasatinib; first compound 0.2 µM) | relative viability (NVP-TAE684 + Dasatinib; first compound 0.6325 µM) | relative viability (NVP-TAE684 + Dasatinib; first compound 2 µM) | relative viability (CUDC-101 + Navitoclax; first compound 0.01 µM) | relative viability (CUDC-101 + Navitoclax; first compound 0.03162 µM) | relative viability (CUDC-101 + Navitoclax; first compound 0.1 µM) | relative viability (CUDC-101 + Navitoclax; first compound 0.3162 µM) | relative viability (CUDC-101 + Navitoclax; first compound 1 µM) | relative viability ([2]; first compound 0.01581 µM) | relative viability ([2]; first compound 0.05 µM) | relative viability ([2]; first compound 0.1581 µM) | relative viability ([2]; first compound 0.5 µM) | relative viability ([2]; first compound 0.005 µM)
NCI-H1793 | 0.782 | 0.956 | 0.886 | 1.25 | 0.87 | 0.402 | 0.321 | 0.328 | 0.426 | 0.319 | 0.417 | 0.406 | 0.35 | 0.344 | 0.29 | 0.319 | 0.276 | 
NCI-H1915 | 1.08 | 1.09 | 1.09 | 1.18 | 1.13 | 0.363 | 0.294 | 0.255 | 0.796 | 0.793 | 0.804 | 0.743 | 0.743 | 0.532 | 0.498 | 0.569 | 0.523 | 
NCI-H1944 | 1.09 | 1.25 | 1.2 | 1.34 | 1.2 | 0.212 | 0.202 | 0.161 | 1.02 | 1.03 | 1.01 | 1.09 | 0.861 | 0.373 | 0.293 | 0.32 | 0.318 | 0.314
NCI-H1975 | 0.823 | 1.07 | 0.972 | 1.07 | 0.738 | 0.361 | 0.225 | 0.186 | 1.32 | 1.09 | 1.19 | 1.27 | 1.13 | 0.538 | 0.656 | 0.832 | 0.408 | 0.565
NCI-H1993 | 0.861 | 0.784 | 0.749 | 0.749 | 0.681 | 0.499 | 0.548 | 0.581 | 0.827 | 0.884 | 0.743 | 0.771 | 0.558 | 0.64 | 0.699 | 0.708 | 0.694 | 0.651
NCI-H2009 | 1.15 | 1.22 | 1.22 | 1.25 | 1.07 | 0.207 | 0.157 | 0.172 | 1.23 | 1.05 | 1.18 | 1.16 | 1.1 | 0.168 | 0.215 | 0.229 | 0.206 | 0.223
NCI-H2023 | 0.743 | 0.695 | 0.68 | 0.671 | 0.701 | 0.393 | 0.254 | 0.114 | 1.02 | 0.983 | 0.993 | 1 | 0.964 | 0.309 | 0.394 | 0.383 | 0.332 | 0.328
NCI-H2085 | 0.694 | 0.978 | 0.867 | 1.04 | 0.839 | 0.187 | 0.16 | 0.162 | 1.11 | 1.26 | 1.18 | 1.16 | 1.02 | 0.465 | 0.415 | 0.472 | 0.471 | 0.428
NCI-H2087 | 1.03 | 0.954 | 1.07 | 1.1 | 0.915 | 0.573 | 0.694 | 0.225 | 0.945 | 1.07 | 1.04 | 0.98 | 0.727 | 0.208 | 0.214 | 0.261 | 0.227 | 0.24
NCI-H2126 | 0.748 | 0.739 | 0.705 | 0.705 | 0.665 | 0.568 | 0.39 | 0.375 | 0.889 | 0.86 | 0.852 | 0.815 | 0.649 | 0.363 | 0.365 | 0.347 | 0.354 | 0.299
NCI-H2228 | 0.792 | 0.762 | 0.629 | 0.734 | 0.634 | 0.206 | 0.0665 | 0.0894 | 0.941 | 0.646 | 0.607 | 1.11 | 0.846 | 0.886 | 0.649 | 1.12 | 0.597 | 0.564
NCI-H2347 | 0.899 | 0.854 | 0.954 | 0.953 | 0.966 | 0.501 | 0.307 | 0.293 | 0.88 | 0.797 | 0.751 | 0.937 | 0.783 | 0.45 | 0.484 | 0.447 | 0.444 | 0.455
NCI-H2405 | 0.817 | 0.889 | 0.847 | 0.911 | 1.01 | 0.226 | 0.178 | 0.154 | 1.12 | 0.842 | 0.953 | 1.17 | 0.665 | 0.572 | 0.543 | 0.533 | 0.461 | 0.462
NCI-H3122 | 1.02 | 0.992 | 1.04 | 1.07 | 0.999 | 0.239 | 0.119 | 0.0896 | 0.982 | 0.987 | 1.06 | 1.05 | 1.06 | 0.208 | 0.199 | 0.184 | 0.178 | 0.162
PC-3 [JPC-3] | 0.898 | 0.983 | 0.957 | 0.942 | 0.965 | 0.942 | 0.979 | 0.649 | 0.776 | 0.749 | 0.506 | 0.613 | 0.342 |  | 0.534 | 0.532 | 0.515 | 0.592
PC-14 | 0.914 | 1.07 | 0.972 | 1.08 | 0.896 | 0.242 | 0.11 | 0.0369 | 1.08 | 1.05 | 1.06 | 0.754 | 0.265 | 0.479 | 0.515 | 0.559 | 0.441 | 0.34
RERF-LC-KJ | 1.01 | 0.877 | 0.853 | 0.861 | 0.781 | 0.667 | 0.596 | 0.327 | 1.17 | 1.07 | 1.21 | 1.17 | 0.666 | 1.13 | 1.05 | 1.12 | 1.01 | 0.977
SK-LU-1 |  | 1.08 | 1.01 | 1.47 | 1.07 | 0.188 | 0.138 | 0.0928 | 1.03 | 0.774 | 0.852 | 0.662 | 0.489 | 0.399 | 0.31 | 0.41 | 0.395 | 0.412
SK-MES-1 | 1.17 | 1.07 | 1.09 | 1.12 | 0.97 | 0.317 | 0.159 | 0.242 | 1.27 | 1.37 | 1.28 | 1.16 | 1.12 | 0.292 | 0.315 | 0.334 | 0.288 | 0.311
SW 1573 | 0.725 | 0.776 | 0.792 | 0.895 | 0.745 | 0.236 | 0.227 | 0.0788 | 1.2 | 0.897 | 0.951 | 1.23 | 0.901 | 0.325 | 0.389 | 0.478 | 0.299 | 0.306
